ChEMBL document CHEMBL3885861, “Open TG-GATES”

Species: Rattus norvegicus
Assay: Open TG-GATES - Regimen: Single
Format: toxicity, organism-based, Sprague-Dawley
Set-up: regimen Single, gender Male, age 6 weeks
Conditions: in vivo, po, 0 mg/kg, route gavage, dose level Control; for APTT / Bas / Eos / Fbg / Hb / Ht / Lym / MCH / MCHC / MCV / Mono / Neu / PT / Plat / RBC / Ret / WBC: tissue Blood; for KIDNEY_L / KIDNEY_R / KIDNEY_TOTAL: tissue Kidney; for LIVER: tissue Liver; for A/G / ALP / ALT / AST / BUN / CRE / Ca / Cl / DBIL / GLC / IP / K / LDH / Na / PL / RALB / TBIL / TC / TG / TP / gamma-GTP: tissue Plasma

## O=C(O)c1cc(/N=N/c2ccc(S(=O)(=O)Nc3ccccn3)cc2)ccc1O [SULFASALAZINE]
3 h
  TERMINAL_BW: 209.5 g
  APTT: 18.5 s
  Bas: 0%
  Eos: 0.8%
  Fbg: 220.4 mg/dL
  Hb: 12.8 g/dL
  Ht: 38.5%
  Lym: 80.4%
  MCH: 21.2 pg
  MCHC: 33.4%
  MCV: 63.4 fL
  Mono: 1.8%
  Neu: 16.4%
  PT: 12.8 s
  Plat: 116.8 x10_4/uL
  RBC: 607.8 x10_4/ul
  Ret: 7.5%
  WBC: 77.9 x10_2/uL
  KIDNEY_L: 0.9 g
  KIDNEY_R: 0.9 g
  KIDNEY_TOTAL: 1.9 g
  LIVER: 9.9 g
  A/G: 1.5
  ALP: 1055 IU/L
  ALT: 36.8 IU/L
  AST: 60.2 IU/L
  BUN: 12 mg/dL
  CRE: 0.4 mg/dL
  Ca: 10.6 mg/dL
  Cl: 101.6 meq/L
  DBIL: 0.074 mg/dL
  GLC: 196 mg/dL
  IP: 9.4 mg/dL
  K: 3.9 meq/L
  LDH: 182 IU/L
  Na: 140.2 meq/L
  PL: 140.6 mg/dL
  RALB: 3.2 g/dL
  TBIL: 0.1 mg/dL
  TC: 78 mg/dL
  TG: 73.8 mg/dL
  TP: 5.5 g/dL
  gamma-GTP: 1.4 IU/L
6 h
  TERMINAL_BW: 206.9 g
  APTT: 20.7 s
  Bas: 0%
  Eos: 1%
  Fbg: 224 mg/dL
  Hb: 13.2 g/dL
  Ht: 38.3%
  Lym: 75.8%
  MCH: 21.8 pg
  MCHC: 34.4%
  MCV: 63.6 fL
  Mono: 2.8%
  Neu: 19.2%
  PT: 12.9 s
  Plat: 114.7 x10_4/uL
  RBC: 602.8 x10_4/ul
  Ret: 7.7%
  WBC: 74.8 x10_2/uL
  KIDNEY_L: 1 g
  KIDNEY_R: 1 g
  KIDNEY_TOTAL: 2 g
  LIVER: 9.4 g
  A/G: 1.6
  ALP: 989.2 IU/L
  ALT: 35.8 IU/L
  AST: 65.8 IU/L
  BUN: 10.4 mg/dL
  CRE: 0.3 mg/dL
  Ca: 10.6 mg/dL
  Cl: 101.6 meq/L
  DBIL: 0.07 mg/dL
  GLC: 189.2 mg/dL
  IP: 9.4 mg/dL
  K: 4 meq/L
  LDH: 182.6 IU/L
  Na: 140.6 meq/L
  PL: 141.2 mg/dL
  RALB: 3.3 g/dL
  TBIL: 0.1 mg/dL
  TC: 73.2 mg/dL
  TG: 58 mg/dL
  TP: 5.4 g/dL
  gamma-GTP: 1.2 IU/L
9 h
  TERMINAL_BW: 205 g
  APTT: 18.9 s
  Bas: 0%
  Eos: 1%
  Fbg: 213.2 mg/dL
  Hb: 13.1 g/dL
  Ht: 38.3%
  Lym: 72.6%
  MCH: 21.5 pg
  MCHC: 34.1%
  MCV: 63 fL
  Mono: 3%
  Neu: 22.2%
  PT: 12.8 s
  Plat: 115.1 x10_4/uL
  RBC: 608.8 x10_4/ul
  Ret: 7%
  WBC: 85.1 x10_2/uL
  KIDNEY_L: 0.9 g
  KIDNEY_R: 0.9 g
  KIDNEY_TOTAL: 1.8 g
  LIVER: 8.7 g
  A/G: 1.6
  ALP: 765.6 IU/L
  ALT: 31.8 IU/L
  AST: 63.2 IU/L
  BUN: 11.4 mg/dL
  CRE: 0.4 mg/dL
  Ca: 10.5 mg/dL
  Cl: 103 meq/L
  DBIL: 0.078 mg/dL
  GLC: 207.2 mg/dL
  IP: 9.3 mg/dL
  K: 3.9 meq/L
  LDH: 194.2 IU/L
  Na: 141.2 meq/L
  PL: 142.2 mg/dL
  RALB: 3.4 g/dL
  TBIL: 0.1 mg/dL
  TC: 73.2 mg/dL
  TG: 76.4 mg/dL
  TP: 5.5 g/dL
  gamma-GTP: 2 IU/L
24 h
  TERMINAL_BW: 224.5 g
  APTT: 18.9 s
  Bas: 0%
  Eos: 1%
  Fbg: 220.8 mg/dL
  Hb: 13.3 g/dL
  Ht: 39%
  Lym: 73.8%
  MCH: 21.9 pg
  MCHC: 34%
  MCV: 64.3 fL
  Mono: 3.6%
  Neu: 20.4%
  PT: 12.1 s
  Plat: 117.1 x10_4/uL
  RBC: 607.2 x10_4/ul
  Ret: 6.9%
  WBC: 89.1 x10_2/uL
  KIDNEY_L: 1 g
  KIDNEY_R: 1 g
  KIDNEY_TOTAL: 2 g
  LIVER: 10.8 g
  A/G: 1.5
  ALP: 961.8 IU/L
  ALT: 45 IU/L
  AST: 75.8 IU/L
  BUN: 16.6 mg/dL
  CRE: 0.4 mg/dL
  Ca: 10.7 mg/dL
  Cl: 101.6 meq/L
  DBIL: 0.1 mg/dL
  GLC: 193.8 mg/dL
  IP: 8.1 mg/dL
  K: 4.1 meq/L
  LDH: 214.4 IU/L
  Na: 140 meq/L
  PL: 181.4 mg/dL
  RALB: 3.4 g/dL
  TBIL: 0.2 mg/dL
  TC: 89.4 mg/dL
  TG: 133 mg/dL
  TP: 5.6 g/dL
  gamma-GTP: 1.2 IU/L
